Several values for one entry are separate records, joined by “and”; a condition that tells them apart may be missing. Identical values can stand only once.
Tested on: PD-1-overexpressing Jurkat cells
Assay: Small molecule screen: IL2 secretion (AlphaLISA) from stimulated PD-1-overexpressing Jurkat cells
Assay type: cell-based, human
Settings: 3.3 μM compound; for Zscore_1 / Zscore_2: IL2 level, α-CD3/α-CD28/α-PD-1 beads; for Zscore_1: replicate 1; for Zscore_2: replicate 2; for Zscore_AVG: average of replicate Z scores
Procedure, shortened: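 Cells (100,000/well) with compound at 3.3 μM final, stimulated by α-CD3/α-CD28/α-PD-1 Dynabeads at an 8:1 bead:cell ratio. IL2 in supernatants measured by AlphaLISA. Hits scored ≥3 SD from the mean of DMSO-treated, α-PD-1-bead-stimulated controls.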

| Compound | Zscore_1 | Zscore_2 | Zscore_AVG |
| --- | --- | --- | --- |
| O=c1cc(N2CCNCC2)oc2c(-c3ccccc3)cccc12 [LY 303511] | 1.21 | −0.8685 | 0.1705 |
| O=C1NC(=O)C(c2cn(CCCn3ccnc3)c3ccccc23)=C1Nc1ccccc1 [PKCb Inhibitor] | −3.512 | −5.04 | −4.276 |
| CCN1/C(=C/C(C)=O)Sc2ccc(OC)cc21 [Cdc2-Like Kinase Inhibitor, TG003] | −1.367 | −2.423 | −1.895 |
| NC(=O)Nc1sc(-c2ccc(F)cc2)cc1C(N)=O [IKK-2 Inhibitor IV] | −1.558 | −4.19 | −2.874 |
| CNCCNS(=O)(=O)c1cccc2cnccc12.Cl.Cl [H-8, Dihydrochloride] | −1.014 | −2.509 | −1.761 |
| Cl.Cl.Nc1ncnc2nc(-c3ccc(N4CCOCC4)nc3)cc(-c3cccc(Br)c3)c12 [Adenosine Kinase Inhibitor] | 0.3983 | 0.5922 | 0.4953 |
| Oc1cccc(-c2nc(N3CCOCC3)c3sccc3n2)c1 [PI 3-Kα Inhibitor IV] | 1.287 | 0.7223 | 1.005 |
| COc1ccc(-c2cnc3c(-c4ccsc4)cnn3c2)cc1 [VEGF Receptor 2 Kinase Inhibitor IV] | −1.795 | 1.512 | −0.1417 |
| Nc1ncnc2n[nH]c(Nc3ccc(F)cc3)c12 [MNK1 Inhibitor] | −2.022 | −0.3911 | −1.206 |
| Ic1cccc(CSc2nnc(-c3ccncc3)o2)c1 [GSK-3b Inhibitor II] | −2.376 | −0.4154 | −1.396 |
| COc1cc2ncn(-c3cc(OCc4ccccc4S(C)(=O)=O)c(C#N)s3)c2cc1OC [IKK-3 Inhibitor IX] | 3.754 | 2.454 | 3.104 |
| PIM1 Kinase Inhibitor II | −1.398 | −0.8562 | −1.127 |
| O=C(Nc1cccc(Nc2nccc(Nc3cccc(C(F)(F)F)c3)n2)c1)C1CC1 [Aurora Kinase Inhibitor III] | 7.108 and 2.737 | 6.482 and −0.8139 | 6.795 and 0.9614 |
| CC#CC(=O)Nc1cc2c(Nc3ccc(F)c(Cl)c3)ncnc2cn1 [EGFR/ErbB-2/ErbB-4 Inhibitor] | 0.4572 | 0.3338 | 0.3955 |
| Nc1ncnc2c1cnn2-c1ccccc1 [PP3] | 0.2416 | 0.9081 | 0.5749 |
| O=c1c(O)c(-c2ccc(O)c(O)c2)oc2cc(O)c(O)c(O)c12 [Quercetagetin] | −1.427 | −1.66 | −1.543 |
| Cc1ccc(S(=O)(=O)/C=C/C#N)cc1 [BAY 11-7082] | −3.877 | −4.461 | −4.169 |
| Cc1cc(C=C2C(=O)C=CC2=O)cc(C)c1O [TX-1918] | −0.9736 | −2.336 | −1.655 |
| O=c1[nH]c2ccccc2n1C1CCN(Cc2ccc(-c3nc4cc5nc[nH]c5cc4nc3-c3ccccc3)cc2)CC1 [Akt Inhibitor VIII, Isozyme- Selective, Akti-1/2] | 1.673 | 1.052 | 1.362 |
| Nc1nc(Nc2ccc(S(N)(=O)=O)cc2)nn1C(=S)Nc1c(F)cccc1F [Cdk1/2 Inhibitor III] | −10.55 | −11.64 | −11.1 |
| CCCCc1c(-c2ccc(O)cc2)[nH]c2nccnc12 [Aloisine A, RP107] | −3.301 | −1.322 | −2.311 |
| COC(=O)[C@@]1(O)C[C@H]2O[C@]1(C)n1c3ccccc3c3c4c(c5c6ccccc6n2c5c31)C(=O)NC4 [K-252a, Nocardiopsis sp.] | −4.42 | −6.58 | −5.5 |
| CCCC(=O)Oc1ccc2[nH]c(C(=O)c3cc4ccccc4[nH]3)cc2c1 [PDGF Receptor Tyrosine Kinase Inhibitor II] | −0.7009 | 0.7754 | 0.03721 |
| NCCNc1ncc(C(N)=O)c(Nc2cccc(C(F)(F)F)c2)n1 [Syk Inhibitor II] | −0.7866 | −0.6851 | −0.7358 |
| CCCCc1c(-c2ccc(OC)cc2)[nH]c2nccnc12 [Aloisine, RP106] | −0.8722 | −4.242 | −2.557 |
| Oc1ccc2ccccc2c1SSc1c(O)ccc2ccccc12 [p21-Activated Kinase Inhibitor III, IPA-3] | −0.461 | 0.6426 | 0.09079 |

| Compound | Zscore_1 | Zscore_2 | Zscore_AVG |
| --- | --- | --- | --- |
| COc1ccc(C(=O)Nc2sc3c(c2C(N)=O)CCCC3)cc1OC [Flt-3 Inhibitor] | 1.516 | 2.085 | 1.801 |
| COc1ccc2c(c1)/C(=C/c1cnc[nH]1)C(=O)N2 [SU9516] | 8.231 | 12.12 | 10.18 |
| Cc1ccc(NC2=CC(=O)c3sc(C)nc3C2=O)cc1 [Cdk4 Inhibitor III] | −6.073 | −8.107 | −7.09 |
| O=C1Nc2ccc3ncsc3c2/C1=C/c1cnc[nH]1 [PKR Inhibitor] | −7.658 | −8.086 | −7.872 |
| O=C(O)c1ccc2c3c1cccc3c(=O)n1c3ccccc3nc21 [STO-609] | −1.71 | −1.025 | −1.368 |
| COc1cc2ncnc(Nc3ccc(O)c(Br)c3)c2cc1OC [JAK3 Inhibitor II] | −0.7783 | −1.36 | −1.069 |
| Cc1nc(-c2ccccc2)c(-c2ccncc2)o1 [SC-68376] | −1.404 | −0.2868 | −0.8452 |
| O=C1Nc2cc(Br)ccc2/C1=C1/Nc2ccccc2/C1=N\O [GSK-3 Inhibitor IX] | 25.07 | 34.88 | 29.98 |
| CC(C)[C@H](CO)Nc1nc(Nc2cc(N)cc(Cl)c2)c2ncn(C(C)C)c2n1 [Aminopurvalanol A] | −3.687 | −3.638 | −3.662 |
| c1nc2nc(Nc3ccc(N4CCOCC4)cc3)nc(NC3CCCCC3)c2[nH]1 [Reversine] | −3.512 | −5.332 | −4.422 |
| COc1ccc(OC)c2c(=S)c3ccccc3[nH]c12 [Cdk4 Inhibitor II, 625987] | 0.5748 | −1.274 | −0.3496 |
| CCCCCCOC(=O)[C@]1(O)C[C@@H]2O[C@@]1(C)n1c3ccccc3c3c4c(c5c6ccccc6n2c5c31)C(=O)NC4 [KT5720] | 10.81 | 13.17 | 11.99 |
| O=C1Nc2ccccc2/C1=C1/Nc2ccccc2/C1=N\OCC(O)CO (stereo not drawn) [Indirubin Derivative E804] | 20.78 | 24.43 | 22.6 |
| O=C(c1cc2cc(O)ccc2[nH]1)c1cc2cc(O)ccc2[nH]1 [Flt-3 Inhibitor II] | 1.536 | 2.085 | 1.81 |
| CN[C@@H]1C[C@H]2O[C@@](C)([C@@H]1OC)n1c3ccccc3c3c4c(c5c6ccccc6n2c5c31)C(=O)NC4 [Staurosporine, Streptomyces sp.] | −6.893 and −7.431 | −9.439 and −9.651 | −8.166 and −8.541 |
| O=C1c2ccccc2-[n+]2ccc3c([nH]c4ccccc43)c21 [Fascaplysin, synthetic] | −6.289 | −8.222 | −7.256 |
| COc1cc2nccc(Oc3ccc(NC(=S)NC(=O)c4ccccc4C)cc3)c2cc1OC [PDGF RTK Inhibitor] | −3.239 | −6.099 | −4.669 |
| CCCCCCCCCCCCCCCCn1cc[n+](Cc2ccccc2)c1C.[I-] [eEF-2 Kinase Inhibitor, NH125] | −4.759 | −7.332 | −6.046 |
| CC[C@@H](CO)Nc1nc(NCc2ccccc2)c2ncn(C(C)C)c2n1 (single isomer, unassigned) [Roscovitine, (S)-Isomer] | −2.928 | −1.279 | −2.103 |
| Cc1nc2cc3nc(-c4cccs4)cnc3cc2n1C [AGL 2043] | −0.2488 | 1.253 | 0.5019 |
| O=C(Nc1ccncc1)Nc1c(Cl)cc(Cl)cc1Cl [Rho Kinase Inhibitor II] | −1.746 | −1.88 | −1.813 |
| Brc1c(Br)c(Br)c2n[nH]nc2c1Br [Casein Kinase II Inhibitor I] | 0.6337 | 0.5348 | 0.5842 |
| Nc1[nH]nc2nnc(-c3c(-c4ccccc4)nn4ccccc34)cc12 [ERK Inhibitor II, FR180204] | −2.073 | −4.806 | −3.439 |
| O=c1cc(N2CCOCC2)oc2c(-c3ccccc3)cccc12 [LY 294002] | −1.451 | 0.6923 | −0.3791 |
| COc1cc2ncnc(N3CCN(C(=O)Nc4ccc(Oc5ccccc5)cc4)CC3)c2cc1OC [PDGF Receptor Tyrosine Kinase Inhibitor III] | 1.681 | 3.032 | 2.357 |

Reference: patent publication US11865176B2, “Compositions and methods of modulating anti-tumor immunity” (Dana-Farber Cancer Institute, Inc., priority 2016, dated 2024)
